Measured values as given in patent US12391695B2, “PRMT5 inhibitors” (Lupin Limited, priority 2019, dated 2025).
Like-named read-outs stand apart in the source and are kept apart here.

Assays:
PRMT5:MEP50 = PRMT5:MEP50 (Homo sapiens, UniProt O14744); test: PRMT5 biochemical assay (HTRF, biotinylated H4R3 substrate), protocols 1 and 2; conditions: 1 μM SAM, 50 nM biotinylated H4R3, protocol 1 or 2 not given, read-out: IC50 (activity range), inhibition of PRMT5
Procedure: (§1) Inhibitory effect of compounds on PRMT5 was assessed using HTRF detection technology in biochemical assay. Biotinylated H4R3 (residues 1-21) was used as a substrate. Compounds were pre-incubated with 15-25 ng PRMT5:MEP50 per well of a 384-well plate for 30 min at room temperature in the assay buffer containing 20 mM Bicine, pH 7.6, 25 mM NaCl, 2 mM DTT, 0.01% Chicken albumin and 0.01% Tween-20. Reaction was initiated by adding 1 μM of SAM and 50 nM biotinylated H4R3. Total assay volume was 15 μL. Reaction was continued for 120 min at room temperature. Then detection solution containing Streptavidin-Eu cryptate, anti-rabbit IgG-XL-665, Histone H4R3 Dimethyl Symmetric (H4R3me2s) Polyclonal Antibody, all prepared in HTRF detection buffer was added and further incubated for 30 min at room temperature. HTRF signal was recorded in PHERAStar microplate reader. Ratio of signal obtained at 665 nm and 620 nm was used to compute the percent inhibition of compound as follows % Inhibition=100−((Test Ratio−Negative control Ratio)/(Positive control Ratio−Negative control Ratio)*100) where Positive control=PRMT5+SAM+H4R3 Negative control=PRMT5+H4R3 Biochemical Assay Protocol 2
as §1, with “2.5” for “15-25”, “4 h” for “120 min”, “control=PRMT5+H4R3” for “control=PRMT5+H4R3 Biochemical Assay Protocol 2”

SDMA = SDMA inhibition assay in Z-138 cells (ELISA with anti-SDMA antibody); format: cell-based; conditions: Homo sapiens, Z-138, 48 h, 48 h treatment
Procedure: Z-138 cells (ATCC, CRL-3001™) were seeded at a density of 1 million cells/well in transparent, flat bottomed tissue culture grade 48-well plates. Cells were treated with various concentration of test compounds for a period of 48 h. Cell lysate was prepared using 1× CST Lysis buffer (Cell Signaling Technology, USA) and 500 ng/well/50 μL of lysate in pH 9.6 carbonate buffer was coated on 96-well Maxisorb plate and incubated overnight at 4° C. The plate was washed twice in 1×PBS containing 0.05% Tween 20 and blocked in 1% BSA for 1 h at ambient temperature. Further, the plate was incubated first with primary antibody (anti-SDMA antibody; CST #13222s) at ambient temperature for 2 h and then with HRP-conjugated secondary antibody at ambient temperature for 1 h with 2 intermittent washing steps in between.
For luminiscence based detection, HRP substrates (substrate A+substrate B in a 1:1 proportion) were added followed by luminiscence reading after 30 min in Synergy™ 2 reader (Biotek, USA).
For absorbance based detection, TMB substrate was added followed by addition of STOP solution (2N H2SO4) post colour development and absorbance (excitation 450 nm and emission 540 nm) was measured in Synergy™ 2 reader (Biotek, USA).
% inhibition of SDMA was calculated relative to the vehicle control samples containing media with 0.1% DMSO alone as per the formula below. (Avg. of Untreated Control−Avg. of Test)×100 Avg. Of Untreated Control
The IC50 values of individual compounds were calculated with Non Linear Regression Analysis using Graph Pad Prism (Graph Pad software, Inc, USA).

Z-138 cells = test: Anti-cancer assay (Z-138), cell viability by CellTiterGlo; format: cell-based; conditions: Homo sapiens, 96 h treatment, read-out: IC50 (activity range), inhibition of cell viability
Procedure: Z-138 cells were seeded at a density of 2000-3000 cells per well in culture media (IMDM+10% FBS). PANC-1 (ATCC, CRL-1469™) and MIA PaCa-2 (ATCC, CRL-1420™) cells were seeded at a density of 200-300 cells per well in culture media (DMEM+10% FBS). Cells were seeded in opaque, flat bottomed tissue culture grade 96-well plates and Z-138 cells (suspension) were seeded and treated on the same day with various concentrations of test compounds. PANC-1 and MIA PaCa-2 cells, being adherent, were kept for overnight settlement at standard cell culture conditions (37° C., 5% CO2). On the following day, cells were treated with various concentrations of test compounds. Cells were treated with test compounds for a period of 96 h, 7 days and 10 days, for Z-138 cells, PANC-1 cells and MIA PaCa-2 cells, respectively. Cell viability was assessed using CellTiterGlo™ (Promega, USA) as per manufacturer's instructions. Relative Light Units (RLU) were read in Synergy™ 2 reader (Biotek, USA). The assay measures cellular ATP as an indicator of cell viability. RLU is proportional to the number of viable cells in the respective well. % inhibition of cell viability was calculated relative to the vehicle control samples containing media with 0.1% DMSO alone as per the formula below. (Avg. of Untreated Control−Avg. of Test)×100 Avg. Of Untreated Control
The IC50 values of individual compounds were calculated with Non Linear Regression Analysis using Graph Pad Prism (Graph Pad software, Inc, USA). • Anti-Cancer Assay (Z-138)

[1] = read-out: IC50 (activity range), SDMA inhibition
[2] = range with mixed units pM/nM, units kept in the value

Sequence of PRMT5:MEP50 (O14744 whole entry, the tested form may be a part): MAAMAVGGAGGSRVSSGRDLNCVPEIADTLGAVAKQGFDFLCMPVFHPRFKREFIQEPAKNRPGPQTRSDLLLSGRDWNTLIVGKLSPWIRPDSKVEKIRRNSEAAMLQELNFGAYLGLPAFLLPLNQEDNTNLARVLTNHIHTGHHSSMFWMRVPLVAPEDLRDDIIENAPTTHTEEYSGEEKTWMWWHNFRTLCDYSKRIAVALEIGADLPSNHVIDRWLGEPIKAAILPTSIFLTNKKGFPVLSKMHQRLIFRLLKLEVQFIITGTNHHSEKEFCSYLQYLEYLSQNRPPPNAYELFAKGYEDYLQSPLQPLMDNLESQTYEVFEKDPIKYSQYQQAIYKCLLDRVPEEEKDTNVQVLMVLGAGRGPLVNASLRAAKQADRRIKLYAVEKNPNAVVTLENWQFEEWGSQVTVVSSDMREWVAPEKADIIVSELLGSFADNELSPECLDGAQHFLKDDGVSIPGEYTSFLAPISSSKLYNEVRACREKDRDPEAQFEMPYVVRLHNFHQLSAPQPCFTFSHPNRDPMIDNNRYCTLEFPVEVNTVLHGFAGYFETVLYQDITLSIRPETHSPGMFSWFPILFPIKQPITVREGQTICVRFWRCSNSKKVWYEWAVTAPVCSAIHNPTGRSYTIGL
Sequence of PRMT5:MEP50 (Q9BQA1 whole entry partner, the tested form may be a part): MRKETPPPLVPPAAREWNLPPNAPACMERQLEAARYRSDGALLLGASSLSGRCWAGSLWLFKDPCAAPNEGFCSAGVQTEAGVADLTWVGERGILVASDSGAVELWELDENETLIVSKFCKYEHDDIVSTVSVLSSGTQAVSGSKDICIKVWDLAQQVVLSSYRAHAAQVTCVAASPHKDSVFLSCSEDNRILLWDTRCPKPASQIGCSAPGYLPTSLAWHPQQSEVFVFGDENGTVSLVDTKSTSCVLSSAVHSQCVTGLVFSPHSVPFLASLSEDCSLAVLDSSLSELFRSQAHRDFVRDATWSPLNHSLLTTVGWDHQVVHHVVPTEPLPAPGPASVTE

| Structure (SMILES) | IC50 (PRMT5:MEP50) | IC50 (SDMA; [1]) | IC50 (Z-138 cells) | IC50 (SDMA; [2]) | IC50 (Z-138 cells; [2]) |
| --- | --- | --- | --- | --- | --- |
| Nc1cnc2ccc(CCC3=C[C@@H](n4ccc5c(N)ncnc54)[C@H](O)[C@@H]3O)cc2n1 [Compound 3, (1S,2R,5R)-5-(4-Amino-7H-pyrrolo[2,3-d]pyrimidin-7-yl)-3-(2-(3-aminoquinoxalin-6-yl)ethyl)cyclopent-3-ene-1,2-diol] | 0.25 to 0.95 nM | 1100 to 50000 pM | > 1000 pM | – | – |
| Nc1nc2cc(CCC3=C[C@@H](n4ccc5c(N)ncnc54)[C@H](O)[C@@H]3O)cnc2cc1Cl [Compound 2, (1S,2R,5R)-3-(2-(6-Amino-7-chloro-1,5-naphthyridin-3-yl)ethyl)-5-(4-amino-7H-pyrrolo [2,3-d]pyrimidin-7-yl)cyclopent-3-ene-1,2-diol] | 0.25 to 0.95 nM | 1100 to 50000 pM | > 1000 pM | – | – |
| Nc1nc2cc(CCC3=C[C@@H](n4ncc5c(N)ncnc54)[C@H](O)[C@@H]3O)cc(F)c2cc1Cl [Compound 5, (1S,2R,5R)-5-(4-Amino-1H-pyrazolo[3,4-d]pyrimidin-1-yl)-3-(2-(2-amino-3-chloro-5-fluoroquinolin-7-yl)ethyl)cyclopent-3-ene-1,2-diol] | 0.25 to 0.95 nM | – | – | 100 to 1000 pM | 101 to 1000 pM |
| Nc1ncnc2c1ccn2[C@@H]1C=C(CCc2cc(F)c(F)c3c2CNCC3)[C@@H](O)[C@H]1O [Compound 21, (1S,2R,5R)-5-(4-amino-7H-pyrrolo[2,3-d]pyrimidin-7-yl)-3-(2-(5,6-difluoro-1,2,3,4-tetrahydroisoquinolin-8-yl)ethyl)cyclopent-3-ene-1,2-diol] | 0.25 to 0.95 nM | 1100 to 50000 pM | – | – | 101 to 1000 pM |
| Cc1ncnc2c1ccn2[C@@H]1C=C(CCc2cc(C(F)F)c(F)c3c2CNCC3)[C@@H](O)[C@H]1O [Compound 15, (1S,2R,5R)-3-(2-(6-(difluoromethyl)-5-fluoro-1,2,3,4-tetrahydroisoquinolin-8-yl)ethyl)-5-(4-methyl-7H-pyrrolo[2,3-d]pyrimidin-7-yl)cyclopent-3-ene-1,2-diol] | 0.25 to 0.95 nM | – | – | 100 to 1000 pM | 101 to 1000 pM |
| Nc1nc2cc(CC[C@@]34C[C@@H]3[C@@H](n3ccc5c(N)ncnc53)[C@H](O)[C@@H]4O)cnc2cc1Cl [Compound 24, (1R,2R,3S,4R,5S)-1-(2-(6-Amino-7-chloro-1,5-naphthyridin-3-yl)ethyl)-4-(4-amino-7H-pyrrolo[2,3-d]pyrimidin-7-yl)bicyclo[3.1.0]hexane-2,3-diol] | 0.25 to 0.95 nM | 1100 to 50000 pM | > 1000 pM | – | – |
| Nc1nc2cc(CCC3=C[C@@H](n4ccc5c4ncn4ccnc54)[C@H](O)[C@@H]3O)ccc2cc1Br [Compound 26, (1S,2R,5R)-3-(2-(2-Amino-3-bromoquinolin-7-yl)ethyl)-5-(7H-imidazo[1,2-c]pyrrolo[3,2-e]pyrimidin-7-yl)cyclopent-3-ene-1,2-diol] | > 0.95 nM | 1100 to 50000 pM | > 1000 pM | – | – |
| Nc1cc(=O)n([C@@H]2C=C(COc3cc(F)c4cc(Cl)c(N)nc4c3)[C@@H](O)[C@H]2O)cn1 [Compound 17, 6-amino-3-((1R,4R,5S)-3-(((2-amino-3-chloro-5-fluoroquinolin-7-yl)oxy)methyl)-4,5-dihydroxycyclopent-2-en-1-yl)pyrimidin-4 (3H)-one] | 0.25 to 0.95 nM | 1100 to 50000 pM | > 1000 pM | – | – |
| Cc1nc(N)c2cnn([C@@H]3C=C(CCc4cc(F)c5cc(Cl)c(N)nc5c4)[C@@H](O)[C@H]3O)c2n1 [Compound 6, (1S,2R,5R)-3-(2-(2-amino-3-chloro-5-fluoroquinolin-7-yl)ethyl)-5-(4-amino-6-methyl-1H-pyrazolo[3,4-d]pyrimidin-1-yl)cyclopent-3-ene-1,2-diol] | 0.25 to 0.95 nM | 1100 to 50000 pM | – | – | 101 to 1000 pM |
| Nc1ncnc2c1ccn2[C@@H]1C=C(CCc2cc(Cl)c(F)c3c2CNCC3)[C@@H](O)[C@H]1O [Compound 20, (1S,2R,5R)-5-(4-amino-7H-pyrrolo[2,3-d]pyrimidin-7-yl)-3-(2-(6-chloro-5-fluoro-1,2,3,4-tetrahydroisoquinolin-8-yl)ethyl)cyclopent-3-ene-1,2-diol] | 0.25 to 0.95 nM | 1100 to 50000 pM | > 1000 pM | – | – |
| Nc1ncnc2c1ccn2[C@@H]1C=C(CCc2ccc(F)c3c2CNCC3)[C@@H](O)[C@H]1O [Compound 9, (1S,2R,5R)-5-(4-amino-7H-pyrrolo[2,3-d]pyrimidin-7-yl)-3-(2-(5-fluoro-1,2,3,4-tetrahydroisoquinolin-8-yl)ethyl)cyclopent-3-ene-1,2-diol] | 0.25 to 0.95 nM | 1100 to 50000 pM | > 1000 pM | – | – |
| Nc1cnc2ccc(CC[C@@]34C[C@@H]3[C@@H](n3ccc5c(N)ncnc53)[C@H](O)[C@@H]4O)cc2n1 [Compound 4, (1R,2R,3S,4R,5S)-4-(4-Amino-7H-pyrrolo[2,3-d]pyrimidin-7-yl)-1-(2-(3-aminoquinoxalin-6-yl)ethyl)bicyclo[3.1.0]hexane-2,3-diol] | 0.25 to 0.95 nM | 1100 to 50000 pM | > 1000 pM | – | – |
| Nc1ncnc2c1ccn2[C@@H]1C=C(COc2cc(C(F)F)c(F)c3c2CNCC3)[C@@H](O)[C@H]1O [Compound 12, (1S,2R,5R)-5-(4-amino-7H-pyrrolo[2,3-d]pyrimidin-7-yl)-3-(((6-(difluoromethyl)-5-fluoro-1,2,3,4-tetrahydroisoquinolin-8-yl)oxy)methyl)cyclopent-3-ene-1,2-diol] | 0.25 to 0.95 nM | 1100 to 50000 pM | > 1000 pM | – | – |
| Cc1cn([C@@H]2C=C(CCc3cc(C(F)F)c(F)c4c3CNCC4)[C@@H](O)[C@H]2O)c2ncnc(N)c12 [Compound 25, (1S,2R,5R)-5-(4-amino-5-methyl-7H-pyrrolo[2,3-d]pyrimidin-7-yl)-3-(2-(6-(difluoromethyl)-5-fluoro-1,2,3,4-tetrahydroisoquinolin-8-yl)ethyl)cyclopent-3-ene-1,2-diol] | 0.25 to 0.95 nM | 1100 to 50000 pM | > 1000 pM | – | – |
